Data: EP1247803A2, “Indolinone compounds suitable for modulation of protein kinases” (Sugen, Inc., priority 1996, dated 1998)

Assays:
EGFR = target: T1, EGFR (Homo sapiens, UniProt P00533); experiment: EGFR ELISA assay (in vitro kinase activity, EGFR captured from A431 cell lysate); assay type: biochemical; set-up: concentration or dose not given beside the values
T1 construct: Add 7 ug A431 cell lysate per well (EGFR source); endogenous in cells; host or cells: A431
How it was run: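 EGFR from A431 lysate was captured on anti-EGFR antibody-coated plates and preincubated with compounds for 30 min. Autophosphorylation ran 5 min with 3 uM ATP and 5 mM MnCl2 (final), stopped with 20 mM EDTA. Phosphotyrosine was detected by anti-pTyr ELISA with ABTS/H2O2, read at 410 nm.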

MET = MET biochemical kinase assay; set-up: species or system human; concentration or dose not given beside the values
How it was run: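 Immunocaptured MET autophosphorylation, read colorimetrically (TMB) via HRP anti-phosphotyrosine antibody. Kinase reaction initiated with buffer containing ATP and divalent metals after compound addition to plate-bound receptor from lysates.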

T1 sequence (P00533 25-1210): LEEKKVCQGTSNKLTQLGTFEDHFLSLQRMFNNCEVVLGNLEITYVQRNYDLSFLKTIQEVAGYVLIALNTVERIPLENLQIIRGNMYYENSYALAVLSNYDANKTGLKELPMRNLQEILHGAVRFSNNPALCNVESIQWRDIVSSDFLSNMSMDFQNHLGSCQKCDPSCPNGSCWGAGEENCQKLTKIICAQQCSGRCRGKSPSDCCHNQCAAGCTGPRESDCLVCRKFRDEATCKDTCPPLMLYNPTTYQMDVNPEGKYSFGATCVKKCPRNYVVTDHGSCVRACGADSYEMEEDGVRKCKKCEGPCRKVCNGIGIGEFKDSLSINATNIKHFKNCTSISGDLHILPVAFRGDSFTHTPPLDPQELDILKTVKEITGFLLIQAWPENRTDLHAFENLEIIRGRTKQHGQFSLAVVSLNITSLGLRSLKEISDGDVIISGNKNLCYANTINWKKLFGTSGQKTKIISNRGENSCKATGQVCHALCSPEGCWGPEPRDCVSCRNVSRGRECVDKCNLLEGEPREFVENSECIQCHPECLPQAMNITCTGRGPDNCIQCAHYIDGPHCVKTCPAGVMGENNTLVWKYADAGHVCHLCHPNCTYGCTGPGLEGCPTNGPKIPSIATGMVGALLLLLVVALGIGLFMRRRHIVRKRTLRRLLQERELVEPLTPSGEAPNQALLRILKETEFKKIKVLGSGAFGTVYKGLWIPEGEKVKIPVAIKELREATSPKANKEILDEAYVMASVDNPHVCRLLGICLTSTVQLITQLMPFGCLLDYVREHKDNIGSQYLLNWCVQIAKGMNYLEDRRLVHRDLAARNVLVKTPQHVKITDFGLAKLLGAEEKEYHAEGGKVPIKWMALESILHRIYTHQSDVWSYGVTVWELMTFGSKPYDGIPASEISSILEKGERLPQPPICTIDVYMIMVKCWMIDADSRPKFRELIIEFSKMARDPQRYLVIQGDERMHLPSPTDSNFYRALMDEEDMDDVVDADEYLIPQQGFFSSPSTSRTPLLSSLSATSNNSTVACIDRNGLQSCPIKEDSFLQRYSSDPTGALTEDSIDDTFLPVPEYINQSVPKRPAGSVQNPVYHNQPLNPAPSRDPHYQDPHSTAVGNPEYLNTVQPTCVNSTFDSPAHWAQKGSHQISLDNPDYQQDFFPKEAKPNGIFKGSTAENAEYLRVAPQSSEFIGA

SMILES	Biochem EGFR %Inhibition (EGFR)	Met Kinase % Inhibition (MET)
O=C1Nc2ccc(S(=O)(=O)Nc3ccc(C(F)(F)F)cc3)cc2C1=Cc1ccccc1O [10720/E05]	40.7%	55.4%
Cc1cc(C)c(C=C2C(=O)Nc3ccc(I)cc32)[nH]1 [10721/B08]	64.0%	64.5%
COc1ccc(O)c(C=C2C(=O)Nc3ccc(S(=O)(=O)N4CCOCC4)cc32)c1 [10720/F10]	6.0%	42.8%
CNS(=O)(=O)c1ccc2c(c1)C(=Cc1ncc[nH]1)C(=O)N2 [10720/D11]	-5.5%	23.9%
Cc1cc(O)cc(O)c1C=C1C(=O)Nc2ccc(S(=O)(=O)N3CCOCC3)cc21 [10720/F08]	-39.6%	36.2%
CSc1ccc(C=C2C(=O)Nc3ccc(CCCl)cc32)s1 [10720/G07]	-8.0%	12.9%
Cc1cc(C)c(C=C2C(=O)Nc3c(Br)cc(Br)cc32)[nH]1 [10721/A08]	24.0%	29.9%
O=C1Nc2c(Br)cc(Br)cc2C1=Cc1cc2c([nH]1)CCCC2 [10721/A05]	41.4%	52.9%
Cn1cc(Cl)c(C=C2C(=O)Nc3c(Br)cc(Br)cc32)n1 [10721/A03]	25.5%	56.2%
CCOc1cc(C=C2C(=O)Nc3ccc(S(=O)(=O)NC)cc32)ccc1O [10720/D09]	2.4%	62.8%
Cc1c(Br)ccc2c1C(=Cc1cc3c([nH]1)CCCC3)C(=O)N2 [10721/C05]	68.1%	48.7%
Cc1cc(O)cc(O)c1C=C1C(=O)Nc2ccc(S(=O)(=O)Nc3ccc(C(F)(F)F)cc3)cc21 [10720/E08]	37.4%	55.1%
CNS(=O)(=O)c1ccc2c(c1)C(=Cc1cc(C)c(C)s1)C(=O)N2 [10721/D04]	5.0%	35.3%
CNS(=O)(=O)c1ccc2c(c1)C(=Cc1ccc(Cl)s1)C(=O)N2 [10721/D07]	23.0%	-6.8%
O=C1Nc2ccc(I)cc2C1=Cc1cc2c([nH]1)CCCC2 [10721/B05]	76.8%	70.8%
CC(C)(C)c1cc(C=C2C(=O)Nc3c(Br)cc(Br)cc32)cc(C(C)(C)C)c1O [10721/A11]	24.6%	23.9%
COc1ccc(C=C2C(=O)Nc3ccc(S(=O)(=O)Nc4ccc(C(F)(F)F)cc4)cc32)cc1OC [10720/E04]	-2.7%	46.7%
O=C1Nc2ccc(S(=O)(=O)Nc3ccc(C(F)(F)F)cc3)cc2C1=Cc1c(F)cc(F)cc1F [10720/E02]	25.2%	18.0%
CNS(=O)(=O)c1ccc2c(c1)C(=Cc1ccc(O)c(C(C)(C)C)c1)C(=O)N2 [10721/D09]	15.3%	-4.9%
Cc1c(Br)ccc2c1C(=Cc1c[nH]c3ccccc13)C(=O)N2 [10717/C06]	-49.7%	44.1%
